Patent US20100297109A1, “METHODS FOR INHIBITING FASCIN” (Cornell University, priority 2007, published 2010)

Test system: MDA-MB-231 human breast tumor cells
Test: Experimental lung metastasis of MDA-MB-231 cells in NOD-SCID mice, bioluminescence imaging
Format: in vivo, mouse
Details: 10 mg/kg I.P. every other day for seven weeks
Method: Breast Tumor Metastasis in Mice. All animal work was performed in compliance with the Institutional Animal Care and Use Committee of the Weill Medical College. Spontaneous 4T1 mouse breast tumor metastasis assay was done as described previously (Shan et al. 2005). NOD-SCID immunodeficient mice were used for experimental lung metastasis experiments. MDA-MB-231 human breast tumor cells expressing the TGL reporter were trypsinized and washed with PBS. This artificial TGL reporter gene encodes a triple fusion protein with herpes simplex virus 1 thymidine kinase fused to the N-terminus of enhanced GFP and firefly luciferase fused to the C-terminus of GFP (Ponomarev et al. 2004). Subsequently 1×10^6 cells in 0.2 ml PBS were injected into the lateral tail vein. […] Three randomly selected fields (10×objectives) on the lower side of the insert were photographed, and the cells on the lower surface of the insert were counted.
Third, the experimental metastasis model with MDA-MB-231 human tumor cells in immunodeficient mice was used to investigate the role of fascin in tumor metastasis and the effect of macroketone on the metastasis of human tumors in mice (FIG. 8 E-H). […] GFP-positive cells were enriched by fluorescence-activated cell sorting. […] The metastasis of tumor cells to the lung was monitored by non-invasive bioluminescence imaging (Minn et al. 2005). […]

COC1C=CCCCCC(=O)CCC(C)=CC(C)C1O (stereo not shown) [macroketone, Migrastatin ketone] was tested, and the “reduction of metastasis of MDA-MB-231 cells (photon flux)” value was > 80%.
